These results are taken from paper PMC6597265 (ACS chemical neuroscience, 2019).

The target in assay [1] is native KA receptors. Description: Binding affinity at native KA receptors, [3H]-KA, rat cortical synaptosomes. To be noted: native iGluRs, mean of at least three experiments.
For assay [2], the target named is recombinant rat homomeric GluK1 (Rattus norvegicus, UniProt P22756). Description: Binding affinity at cloned homomeric GluK1 expressed in sf9 cells, [3H]-NF608.
Assay [3] has as its target recombinant rat homomeric GluK2 (Rattus norvegicus, UniProt P42260). The experiment in a line: Binding affinity at cloned homomeric GluK2 expressed in sf9 cells, [3H]-KA.
Assay [4] deals with T1, human EAAT3 (Homo sapiens, UniProt P43005).
T1 sequence (P43005 1-524): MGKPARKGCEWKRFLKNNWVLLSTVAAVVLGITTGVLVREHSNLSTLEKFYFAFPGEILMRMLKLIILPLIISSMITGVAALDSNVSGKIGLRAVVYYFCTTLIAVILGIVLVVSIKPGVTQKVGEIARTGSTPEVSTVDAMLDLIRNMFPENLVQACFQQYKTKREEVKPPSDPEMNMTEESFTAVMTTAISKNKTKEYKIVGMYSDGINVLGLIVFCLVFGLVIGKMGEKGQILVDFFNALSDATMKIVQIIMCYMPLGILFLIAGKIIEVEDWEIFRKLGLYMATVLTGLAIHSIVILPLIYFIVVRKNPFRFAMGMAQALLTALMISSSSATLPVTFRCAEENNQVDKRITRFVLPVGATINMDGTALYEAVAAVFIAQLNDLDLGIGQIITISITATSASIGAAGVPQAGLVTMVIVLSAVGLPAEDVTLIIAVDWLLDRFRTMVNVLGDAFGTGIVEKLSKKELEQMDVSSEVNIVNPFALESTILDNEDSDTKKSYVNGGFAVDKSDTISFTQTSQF
The experiment in a line: [3H]-D-Asp uptake assay, EAAT3 stably expressed in HEK293 cells. The assay is classed as cell-based.

Assay [5] concerns the target recombinant rat homomeric GluK3 (Rattus norvegicus, UniProt P42264). Description: Binding affinity at cloned homomeric GluK3 expressed in sf9 cells, [3H]-KA. To be noted: for GluK1/K3 (GluK1/GluK3 Ki selectivity ratio): ratio of Ki values at cloned homomeric receptors.
Assay [6] deals with native AMPA receptors. Description: Binding affinity at native AMPA receptors, [3H]-AMPA, rat cortical synaptosomes. Particulars: native iGluRs.
For assay [7], the target named is human EAAT2 (Homo sapiens, UniProt P43004). The experiment in a line: [3H]-D-Asp uptake assay, EAAT2 stably expressed in HEK293 cells. The assay is classed as cell-based.
Sequence of human EAAT2 (P43004 whole entry): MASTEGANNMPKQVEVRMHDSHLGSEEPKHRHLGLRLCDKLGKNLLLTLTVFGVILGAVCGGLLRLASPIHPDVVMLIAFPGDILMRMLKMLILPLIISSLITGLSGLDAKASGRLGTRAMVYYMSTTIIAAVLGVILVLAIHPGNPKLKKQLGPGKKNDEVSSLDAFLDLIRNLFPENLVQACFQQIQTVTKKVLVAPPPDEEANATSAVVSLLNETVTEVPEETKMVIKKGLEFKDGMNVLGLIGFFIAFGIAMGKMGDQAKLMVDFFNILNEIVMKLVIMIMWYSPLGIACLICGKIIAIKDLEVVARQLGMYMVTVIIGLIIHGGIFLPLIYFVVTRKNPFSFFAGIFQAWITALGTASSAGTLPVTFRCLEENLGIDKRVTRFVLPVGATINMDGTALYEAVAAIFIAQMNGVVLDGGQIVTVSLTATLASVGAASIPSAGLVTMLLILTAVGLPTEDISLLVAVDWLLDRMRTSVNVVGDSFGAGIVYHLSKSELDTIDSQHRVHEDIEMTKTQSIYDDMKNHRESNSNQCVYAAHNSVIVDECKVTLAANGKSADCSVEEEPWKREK
Assay [8] has as its target human EAAT1 (Homo sapiens, UniProt P43003). Description: [3H]-D-Asp uptake assay, EAAT1 stably expressed in HEK293 cells. The assay is classed as cell-based.
Assay [9] concerns the target native NMDA receptors. The assay is classed as binding. To be noted: native iGluRs, rat synaptosomes.
The target of assay [10] is GluN1/GluN2C (Rattus norvegicus, UniProt P35439+Q00961). The assay is classed as cell-based.
The target of assay [11] is GluN1/GluN2B (Rattus norvegicus, UniProt P35439+Q00960). The assay is classed as cell-based.
Assay [12] concerns the target GluN1/GluN2D (Rattus norvegicus, UniProt P35439+Q62645). The assay is classed as cell-based.
Assay [13] deals with GluN1/GluN2A (Rattus norvegicus, UniProt P35439+Q00959). In kind it is cell-based.
Sequence of GluN1/GluN2A (Rattus norvegicus, UniProt P35439+Q00959) (Q00959 23-1464, other chains not shown): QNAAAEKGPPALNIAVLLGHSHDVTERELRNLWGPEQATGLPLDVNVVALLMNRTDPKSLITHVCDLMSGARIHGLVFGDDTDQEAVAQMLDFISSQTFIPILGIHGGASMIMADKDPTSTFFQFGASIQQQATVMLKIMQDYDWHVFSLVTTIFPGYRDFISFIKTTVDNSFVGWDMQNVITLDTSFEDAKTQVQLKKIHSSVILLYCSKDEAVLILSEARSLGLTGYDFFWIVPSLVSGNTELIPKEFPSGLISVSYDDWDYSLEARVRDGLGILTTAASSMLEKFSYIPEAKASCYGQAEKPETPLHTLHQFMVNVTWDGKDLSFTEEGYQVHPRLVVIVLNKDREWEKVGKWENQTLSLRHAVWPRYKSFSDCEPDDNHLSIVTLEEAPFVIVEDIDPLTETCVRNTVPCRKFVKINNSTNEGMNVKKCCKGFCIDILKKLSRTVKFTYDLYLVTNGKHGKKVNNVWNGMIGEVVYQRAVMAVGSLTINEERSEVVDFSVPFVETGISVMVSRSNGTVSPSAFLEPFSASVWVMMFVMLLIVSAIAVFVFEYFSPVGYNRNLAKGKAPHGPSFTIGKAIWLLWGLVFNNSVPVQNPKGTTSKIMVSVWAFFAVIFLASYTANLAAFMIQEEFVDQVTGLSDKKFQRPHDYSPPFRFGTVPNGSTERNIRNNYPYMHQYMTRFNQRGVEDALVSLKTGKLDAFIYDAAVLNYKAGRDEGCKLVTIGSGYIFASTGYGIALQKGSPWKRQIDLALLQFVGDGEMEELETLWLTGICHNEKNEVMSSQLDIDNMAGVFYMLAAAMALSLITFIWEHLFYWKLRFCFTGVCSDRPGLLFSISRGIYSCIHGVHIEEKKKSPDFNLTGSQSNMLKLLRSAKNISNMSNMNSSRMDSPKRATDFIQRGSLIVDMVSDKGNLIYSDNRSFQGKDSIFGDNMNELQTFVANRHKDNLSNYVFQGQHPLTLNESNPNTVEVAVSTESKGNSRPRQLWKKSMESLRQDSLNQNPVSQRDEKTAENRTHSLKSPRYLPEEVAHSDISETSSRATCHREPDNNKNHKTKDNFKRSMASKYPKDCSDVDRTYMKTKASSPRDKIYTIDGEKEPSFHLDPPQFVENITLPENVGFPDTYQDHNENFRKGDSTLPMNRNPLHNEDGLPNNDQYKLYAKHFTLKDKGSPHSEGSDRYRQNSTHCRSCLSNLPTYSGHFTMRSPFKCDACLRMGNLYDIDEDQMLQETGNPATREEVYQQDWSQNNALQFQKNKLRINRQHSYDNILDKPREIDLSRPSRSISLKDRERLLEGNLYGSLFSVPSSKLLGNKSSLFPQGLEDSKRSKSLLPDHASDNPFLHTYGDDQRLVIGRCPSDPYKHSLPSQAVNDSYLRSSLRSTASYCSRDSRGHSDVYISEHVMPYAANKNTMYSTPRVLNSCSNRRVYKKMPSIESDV
The target of assay [14] is GluN1/GluN2A (Rattus norvegicus, UniProt Q00959). In kind it is cell-based. To be noted: from Ki values.
Sequence of GluN1/GluN2A (Rattus norvegicus, UniProt Q00959) (Q00959 23-1464, other chains not shown): as above
For assay [15], the target named is native AMPA receptors. Particulars: read-out: IC50 AMPA, cited from earlier work.
The target of assay [16] is native KA receptors. Particulars: cited from earlier work.
In assay [17] the target is native NMDA receptors. To be noted: read-out: Ki NMDA, cited from earlier work.

Molecules are shown by their SMILES. Like-named read-outs stand apart in the source and are kept apart here. Where only a bound is given, the exact number is not on record here.

Sequence of recombinant rat homomeric GluK3 (P42264 32-919): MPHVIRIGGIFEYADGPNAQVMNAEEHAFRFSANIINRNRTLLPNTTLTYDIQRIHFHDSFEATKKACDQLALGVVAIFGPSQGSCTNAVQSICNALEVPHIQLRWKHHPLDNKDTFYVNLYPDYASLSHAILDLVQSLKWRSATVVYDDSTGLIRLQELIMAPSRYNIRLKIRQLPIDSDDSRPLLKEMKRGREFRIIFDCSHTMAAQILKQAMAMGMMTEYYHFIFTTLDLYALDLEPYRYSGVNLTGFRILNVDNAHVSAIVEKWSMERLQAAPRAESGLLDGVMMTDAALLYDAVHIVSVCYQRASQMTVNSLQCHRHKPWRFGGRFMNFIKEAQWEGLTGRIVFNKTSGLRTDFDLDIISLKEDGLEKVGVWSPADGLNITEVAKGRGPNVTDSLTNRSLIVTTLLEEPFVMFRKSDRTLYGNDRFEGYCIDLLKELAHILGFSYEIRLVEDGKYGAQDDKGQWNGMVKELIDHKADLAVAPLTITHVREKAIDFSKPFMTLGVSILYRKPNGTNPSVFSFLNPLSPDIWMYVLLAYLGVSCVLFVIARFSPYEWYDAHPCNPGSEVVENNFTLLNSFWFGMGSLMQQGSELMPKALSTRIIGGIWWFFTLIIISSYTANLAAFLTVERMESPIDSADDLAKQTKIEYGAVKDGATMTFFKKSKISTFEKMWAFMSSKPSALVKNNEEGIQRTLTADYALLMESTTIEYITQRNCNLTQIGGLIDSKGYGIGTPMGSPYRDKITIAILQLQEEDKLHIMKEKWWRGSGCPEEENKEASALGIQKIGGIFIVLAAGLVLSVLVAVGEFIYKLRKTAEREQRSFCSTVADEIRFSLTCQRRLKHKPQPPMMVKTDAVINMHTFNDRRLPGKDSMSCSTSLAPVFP
Sequence of human EAAT1 (P43003 whole entry): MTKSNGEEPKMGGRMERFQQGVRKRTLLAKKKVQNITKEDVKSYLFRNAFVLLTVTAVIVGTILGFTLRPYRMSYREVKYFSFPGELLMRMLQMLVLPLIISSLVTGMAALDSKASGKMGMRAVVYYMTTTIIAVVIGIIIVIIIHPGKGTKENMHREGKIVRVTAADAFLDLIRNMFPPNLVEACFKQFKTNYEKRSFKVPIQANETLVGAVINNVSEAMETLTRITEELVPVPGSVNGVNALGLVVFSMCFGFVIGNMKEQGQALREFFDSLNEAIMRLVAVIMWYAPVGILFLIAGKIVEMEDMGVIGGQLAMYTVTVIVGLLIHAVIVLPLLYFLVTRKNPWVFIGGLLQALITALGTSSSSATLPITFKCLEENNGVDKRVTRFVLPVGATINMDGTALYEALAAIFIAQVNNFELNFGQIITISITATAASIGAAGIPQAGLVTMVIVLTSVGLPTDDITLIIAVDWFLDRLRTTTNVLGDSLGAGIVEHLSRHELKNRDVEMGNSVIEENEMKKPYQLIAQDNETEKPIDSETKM

As a reminder, the Ki is the dissociation constant of the complex between target and ligand, obtained from inhibition or displacement. Broadly, the IC50 is the midpoint of a concentration-inhibition curve. Turning to `Cl.Cl.NC(C(=O)O)[C@@H]1CCN[C@H]1C(=O)O` (relative stereo) [3k, trans-3-(Amino(carboxy)methyl)pyrrolidine-2-carboxylic Acid Dihydrochloride], in assay [1], the “IC50 KA” value is above 100 µM. Further, the values for the Ki in assay [2], in assay [3] and in assay [5] were above 100 µM, above 100 µM and 33 ± 2.4 µM, respectively. The 50% inhibitory concentration (IC50) in assay [4], in assay [7] and in assay [8] was above 300 µM each time. The “GluK1/K3 (GluK1/GluK3 Ki selectivity ratio)” value in [5] is above 3. The “pIC50 AMPA (mean ± SEM, in brackets)” value in assay [6] worked out at 4.51 ± 0.03. Also, the “pKi NMDA (mean ± SEM, in brackets)” value in assay [9] worked out at 5.06 ± 0.02.
Take `Cl.O=C(O)C(Cc1nnn[nH]1)[C@@H]1CCN[C@H]1C(=O)O` (relative stereo) [3q-s3,4, trans-3-(1-Carboxy-2-(1H-tetrazol-5-yl)ethyl)pyrrolidine-2-carboxylic Acid Hydrochloride]: the inhibitory constant (Ki) in [10] came out at 12 ± 1 µM; in assay [11], 2.7 ± 0.1 µM; in [12] it was 62 ± 9 µM; in assay [13] it was 0.61 ± 0.02 µM. In addition, the “pKi NMDA (mean ± SEM, in brackets)” value in assay [9] turned out to be 6.61 ± 0.07. Also, in [14], the “fold preference as antagonist for GluN1/GluN2A over GluN1/GluN2B-D” value is listed as 4.4−100 fold.
Consider `Cl.O=C(O)C[C@H]1CCN[C@@H]1C(=O)O` [3a, (2S,3R)-3-(Carboxymethyl)pyrrolidine-2-carboxylic Acid Hydrochloride], for which the IC50 in assay [15] (native receptors, ref [67]) is 106 µM; in assay [4] (read-out: IC50 EAAT3, HEK293 cells, [3H]-D-Asp uptake), above 300 µM; in assay [7] (read-out: IC50 EAAT2, HEK293 cells, [3H]-D-Asp uptake), above 300 µM; in assay [8] (read-out: IC50 EAAT1, HEK293 cells, [3H]-D-Asp uptake) it was above 300 µM. In [16] (native receptors, ref [67]), the “IC50 KA” value is 1.6 µM. The inhibitory constant (Ki) in [17] (native receptors, ref [67]) is 0.5 µM. In addition, the “GluK1/K3 (GluK1/GluK3 Ki selectivity ratio)” value in [5] came out at 6.
As to `CN[C@H](CC(=O)O)C(=O)O` [NMDA, N-methyl-D-aspartate, reference compound], in [15], the half-inhibitory concentration (IC50) is above 100 µM. Further, the “IC50 KA” value in [16] was above 100 µM. Besides, the inhibitory constant (Ki) in assay [17] was 35 µM.
